Results taken from patent publication US20260083759A1, “Combinations Comprising Psychedelics for the Treatment of Schizophrenia and Other Neuropsychiatric and Neurologic Disorders” (HADASIT MEDICAL RESEARCH SERVICES AND DEVELOPMENT LTD, priority 2022, published 2026).

Experiments:
male ICR mice = experiment: Head twitch response (HTR) induced by psilocybin in mice; type: in vivo
From the text: The head twitch response (HTR) induced by serotonergic psychedelic agents such as psilocybin (PSIL) in rodents, is a characteristic behavioral effect mediated by cortical 5-HT2A receptors that is highly correlated with the psychedelic trip induced by these agents in humans.
In order to determine whether the negative effects such as HTR could be blocked in schizophrenic patients administered psilocybin (PSIL) (which ordinarily would produce “trip-induced effects”) upon further receiving clozapine (CLZ), the effect of concurrent CLZ treatment in blocking the HTR-inducing effect of PSIL in mice was examined.
Toward this end, male ICR mice (aged 8 weeks) were implanted with mini car-magnets and were administered the following treatments intraperitoneally (i.p.): • 1. CLZ at a dosage of 1 or 2 mg/kg weight; • 2. PSIL at a dosage of 4.4 mg/kg weight; • 3. CLZ at a dosage of 1 mg/kg weight and PSIL at a dosage of 4.4 mg/kg weight; • 4. CLZ at a dosage of 2 mg/kg weight and PSIL at a dosage of 4.4 mg/kg weight; and • 5. Vehicle (Saline) controls.
CLZ was administered 30 minutes before PSIL. All injection volumes were identical. HTR was assessed in up to 6 mice simultaneously over a 20-minute period using a purpose-built magnetometer and custom software. Experiments were approved by the Authority for Biological and Biomedical Models, Hebrew University
To further extend these studies, it was of interest to determine the HTR effects induced by Psilocybin when mice were pre-administered D-Serine 3000 mg/kg, as opposed to CLZ (FIG. 2A), or D-Serine 1500 mg/kg, as opposed to CLZ (FIG. 2B).

GAP43 = experiment: Western Blot of synaptic protein GAP43 in brain regions, 7 days post-administration; type: in vivo, mice; settings: for GAP43 protein levels: single i.p. injection (psilocybin 4.4 mg/kg, D-Serine 3 g/kg or both), 7 days post-administration, vs saline controls (FIG. 4)
Protocol: (§1) Specifically, ICR mice were administered a single intra-peritoneal injection of psilocybin at a dosage of 4.4 mg/kg, D-Serine at a dosage of 3 g/kg, a combined psilocybin dosage of 4.4 mg/kg+D-Serine dosage of 3 g/kg and compared to control animals (administered a saline vehicle). 7 days post-administration, animals were harvested, and individual brain regions were dissected, homogenized and processed for Western Blot analysis, probing for GAP43, Synaptophysin and SV2A protein expression, using commercially available reagents (Abcam).
(§2) Animals injected with PSIL or D-SER or the combination of the two were specifically probed for changes in synaptic protein expression, for proteins that are pivotally involved in neuroplasticity of the brain, focusing on 4 key regions: the brain frontal cortex, hippocampus, amygdala and striatum.
(§3) In order to comparatively assess all the effects of individual DSER or PSIL and combined DSER and PSIL administration on each brain region, a nested analysis of variance in which the level each of the synaptic proteins was compared to controls was assessed across the four brain regions frontal cortex, hippocampus, amygdala and striatum (FIG. 6).

Synaptophysin = experiment: Western Blot of synaptic protein Synaptophysin in brain regions, 7 days post-administration; type: in vivo, mice
Protocol: as §1, §2, §3

SV2A = experiment: Western Blot of synaptic protein SV2A in brain regions, 7 days post-administration; type: in vivo, mice; settings: hippocampus; single i.p. injection (D-Serine 3 g/kg or with psilocybin 4.4 mg/kg); 7 days post-administration (FIG. 5)
Protocol: as §1, §2, §3

ICR mice = experiment: MK-801 induced hyperactivity in the open field; type: in vivo; settings: MK-801 0.1 mg/kg i.p. immediately before open field for one hour (FIG. 3A)
Protocol: Hyperactivity induced in rodents by the NMDA receptor antagonist, MK-801, is a key rodent pharmacological model of acute psychotic features in humans.
Drugs which induce psychosis in humans enhance MK-801 induced hyperactivity in rodents while antipsychotic drugs reduce or block the effect.
In order to determine the interactive effects of PSIL and CLZ, a murine model was used where MK-801 induced hyperactivity, was assessed, which serves as a surrogate system for psychotic symptoms in schizophrenia patients.
Toward this end PSIL and CLZ alone and in combination were evaluated for their effects on MK-801 induced hyperactivity in […].
ICR mice were administered MK-801 intra-peritoneally, at a dose of 0.1 mg/kg immediately before they were placed in an open field for one hour. 30 minutes prior to administration of MK-801, mice were pretreated as follows: • 1. PSIL at a dosage of 4.4 mg/kg; • 2. CLZ at a dosage of 1.0 mg/kg; • 3. PSIL at a dosage of 4.4 mg/kg and CLZ at a dosage of 1.0 mg/kg; • 4. D-Serine (DSR) at a dosage of 3000 mg/kg; • 5. D-cycloserine (DCS) at a dosage of 320 mg/kg; • 6. […]
Activity in the open field was monitored by an overhead camera and was recorded by a Noldus Ethovision apparatus. […] Distance moved/travelled in the open field, center duration and center frequency were evaluated in the open field arena.

[1] = across the four brain regions frontal cortex, hippocampus, amygdala and striatum, 7 days post-administration (FIG. 6)

N[C@H](CO)C(=O)O [D-Serine] was tested, and the “PSIL-mediated increased HTR” value (male ICR mice; D-Serine 3000 mg/kg (FIG. 2A) or 1500 mg/kg (FIG. 2B) pre-administered before Psilocybin) was “significantly reduced”, the HTR (male ICR mice; DSR alone) was “did not affect HTR” and the “PSIL-mediated HTR over time” value (male ICR mice; lower D-serine dose with PSIL (FIG. 2C)) was “consistent over time”. For the same compound, the “GAP43 levels, nested analysis of variance compared to controls” value (GAP43; [1]) was “increase”, the GAP43 protein levels (GAP43; amygdala) was “significantly increased” and the GAP43 protein levels (GAP43; frontal cortex) was “significantly increased”. The “Synaptophysin expression, nested analysis of variance compared to controls” value (Synaptophysin; [1]) was “increasing levels”, the synaptophysin protein expression (Synaptophysin; frontal cortex, single i.p. injection D-Serine 3 g/kg, 7 days post-administration (FIG. 5)) was “increased” and the SV2A expression (SV2A) was “increased”.
With C[C@]12N[C@H](Cc3ccccc31)c1ccccc12 [MK-801] the “distance travelled in the open field” value (ICR mice) was “marked movement”.
For N[C@@H]1CONC1=O [DCS, D-cycloserine], the HTR (male ICR mice; DCS alone) was “did not affect HTR” and the “PSIL-mediated increased HTR over time” value (male ICR mice; plotted for up to 30 minutes, DCS at doses of over 320 mg/kg with PSIL (FIG. 2E)) was “rapid abrogation”.
